Reference: patent publication US8128802B2, “Analysis apparatus and analysis method for glycosylated hemoglobin” (OJI Paper Co., Ltd, priority 2005, dated 2012)

Assays:
Type in all cases: biochemical
[1] = system: fructosyl peptide oxidase; test: Substrate specificity of fructosyl peptide oxidase-immobilized column (Example 4); conditions: buffer A pH 7.0; normalized to 100 for the response to fructosyl valine; 30° C.
Method: In the same way as described in Example 1 (1), 150 mg of firebrick powder (30 to 60 meshes) was formylated. The solution (200 μL) of fructosyl peptide oxidase (140 units/mL, from Kikkoman Co.) in 100 mM sodium phosphate buffer (pH 7.0) was contacted with the formylated firebrick powder, and then incubated at 0 to 4° C. for one day for the enzyme immobilization.
In the assay apparatus shown in FIG. 1, the protease-immobilized column (14), the flow type calorimeter (16) and the first immobilized enzyme column (17) were not disposed, and the electrode for glucose was placed in the electrode for hydrogen peroxide (18), the fructosyl peptide oxidase-immobilized column in the second immobilized enzyme column (19), and the electrode for hydrogen peroxide in the electrode for hydrogen peroxide (20). The buffer A was pumped out from the buffer tank (1) by the pump (2), and a 5 μL portion of the sample was injected using the valve (4). The injected sample transferred with the flowing buffer A, passed through the mixing coil (15) in the incubator (13), and thus the sample temperature was adjusted and the sample was mixed with the buffer. And then the sample passed through the downstream electrode for glucose (18), fructosyl peptide oxidase-immobilized column (19) and an electrode for hydrogen peroxide (20), hydrogen peroxide was produced from fructosyl valylhistidine in the sample, and the change of the current was detected.
The composition of the buffer A for the assay apparatus contained 100 mM phosphoric acid, 50 mM potassium chloride and 1 mM sodium azide, and its pH was 7.0.
(§1) The flow rate of the buffer was 1.0 mL/minute, and the temperature in the incubator was 30° C.
On fructosyl peptide oxidase-immobilized column, the substrate specificity for various fructosyl amino acids, fructosyl peptides, amino acids and sugars was examined using the assay apparatus mentioned in (4) when pH of the buffer A was 7.0. In the Table 4, the relative values were normalized to 100 for the response to fructosyl valine.

[2] = system: fructosyl amino acid oxidase; test: Substrate specificity of fructosyl amino acid oxidase-immobilized column (Example 3); conditions: buffers pH 8.0; for Relative response value: normalized to 100 for the response to fructosyl glycine, 37° C., dialysis module
From the text: The buffer was removed as far as possible. […] The support immobilized enzyme was packed into the column (internal diameter: 3.5 mm, length: 30 mm) to give the fructosyl amino acid oxidase-immobilized column. In the assay apparatus shown in FIG. 2, the flow type calorimeter (16), the protease-immobilized column (14) and the first immobilized enzyme column (17) were not disposed, and the electrode for glucose was placed in the electrode for hydrogen peroxide (18), the fructosyl amino acid oxidase-immobilized column in the second immobilized enzyme column (19), and the electrode for hydrogen peroxide in the electrode for hydrogen peroxide (20). The buffer B was pumped out from the buffer tank (24) using the pump (25), and a 100 μL portion of the sample was injected using the valve (4). […] Since the buffer A was pumped out from the buffer tank (1) by the pump (2), the components with low molecular weight in the sample dialyzed in the dialysis module (27) passed through the electrode for glucose (18), the fructosyl amino acid oxidase-immobilized column (19) and the electrode for hydrogen peroxide (20), and hydrogen peroxide from glucose and fructosyl amino acid in the sample was detected. […] The temperature in the incubator was 37° C. The substrate specificity of fructosyl amino acid oxidase-immobilized column for various fructosyl amino acids, fructosyl peptides, amino acids and sugars was examined using the assay apparatus mentioned in (4) when pH of the buffers was 8.0.

[3] = system: fructosyl peptide oxidase; test: Substrate specificity, pH profile and stability of fructosyl peptide oxidase-immobilized column (Example 1); conditions: for Relative activity (%) pH 6.0: buffer pH 6.0; for Relative activity (%) pH 6.0 / Relative activity (%) pH 7.0 / Relative activity (%) pH 8.0: normalized to 100 for the response to fructosyl valine at each pH, 30° C.; for Relative activity (%) pH 7.0: buffer pH 7.0; for Relative activity (%) pH 8.0: buffer pH 8.0
Method: Firebrick powder (150 mg, 30 to 60 meshes) was thoroughly dried, immersed in a 10% solution of γ-aminopropyltriethoxysilane in anhydrous toluene for one hour, then thoroughly washed with anhydrous toluene and dried. The aminosilane-modified support was immersed in a 5% aqueous glutaraldehyde solution for one hour, and then thoroughly washed with distilled water, followed by substitution with 100 mM sodium phosphate buffer (pH 7.0). The buffer was removed as far as possible. A solution ([…]) of fructosyl peptide oxidase (140 units/mL, from Kikkoman Co.) in 100 mM sodium phosphate buffer (pH 7.0) was contacted with the formylated firebrick powder, and then incubated at 0 to 4° C. for one day for the enzyme immobilization. The support immobilized enzyme was packed into a column (internal diameter: 3.5 mm, length: 30 mm) to give the fructosyl peptide oxidase-immobilized column.
The buffer was pumped out from a buffer tank (1) using a pump (2), and 5 μL of a sample was injected using a valve (4). A protease-immobilized column (14), a flow type calorimeter (16), a second immobilized enzyme column (19) and a second electrode for hydrogen peroxide (20) were not placed, and a fructosyl peptide oxidase-immobilized column was placed as a first immobilized enzyme column (17), followed by an electrode for hydrogen peroxide (18) downstream thereof. The injected sample transferred with the flowing buffer, passed through a mixing coil (15) inside an incubator (13), and thus the sample temperature was adjusted and the sample was mixed with the buffer. The sample passed through the fructosyl peptide oxidase-immobilized column (17) and the electrode for hydrogen peroxide (18) to produce hydrogen peroxide from fructosyl valylhistidine in the sample, and then the change of the current was detected.
A composition of the buffer used in this assay apparatus contained 100 mM phosphoric acid, 50 mM potassium chloride and 1 mM sodium azide, and its pH was 7.0.
as §1
Using the assay apparatus described in (3), a 5 μL portion of fructosyl glycine, fructosyl valine or fructosyl valylhistidine was injected, and the characteristics of the fructosyl peptide oxidase-immobilized column was examined.
When pH of the buffer was 6.0, 7.0 or 8.0, the assay results of the activity for the oxidation of fructosyl glycine (FG), fructosyl valine (FV) or fructosyl valylhistidine (FVH) were shown in FIG. 3. For fructosyl glycine the activity was high at pH 8.0, but the activity at pH 6.0 was decreased to about 50% of that at pH 8.0. For fructosyl valine and fructosyl valylhistidine, the activity was high at pH 6.0 and 7.0.
Response values in Table 1 were normalized to 100 for the response to fructosyl valine at each pH.

[4] = system: fructosyl amino acid oxidase; test: Characteristics of fructosyl amino acid oxidase-immobilized column (Example 5); conditions: sample concentration 10 mM; buffer pH 8.0, 37° C.
Method: FIG. 1 was the flow type assay apparatus with one flow path. The buffer A was pumped out from the buffer tank (1) using the pump (2), and a 5 μL portion of the sample was injected using the valve (4). The fructosyl amino acid oxidase-immobilized column was placed in the first immobilized enzyme column (17) and the electrode for hydrogen peroxide was placed downstream. The second immobilized enzyme column (19), the second electrode for hydrogen peroxide (20), the protease-immobilized column (14) and the flow type calorimeter (16) were not disposed. The injected sample transferred with the flowing buffer, passed through the mixing coil (15) in the incubator (13), and thus the sample temperature was adjusted and the sample was mixed with the buffer. The sample passed through the fructosyl amino acid oxidase-immobilized column (17) and the electrode for hydrogen peroxide (18), hydrogen peroxide was produced from fructosyl valine in the sample, and the change of the current was detected.
The composition of the buffer for this assay apparatus contained 100 mM phosphoric acid, 50 mM potassium chloride and 1 mM sodium azide, and its pH was 8.0.
The flow rate of the buffer was 1.0 mL/minute, and the temperature in the incubator was 37° C.
Using the assay apparatus 1 mentioned in (3), a 5 μL portion of fructosyl glycine was injected, and the characteristics of the fructosyl amino acid oxidase-immobilized column was examined.
When pH in the buffer was 7.0, 7.5, 8.0, 8.5 or 9.0, the activity in the oxidation of fructosyl glycine was measured.

Row | Structure (SMILES) | Relative response value [1] | Relative response value [2] | Relative activity (%) pH 6.0 [3] | Relative activity (%) pH 7.0 [3] | Relative activity (%) pH 8.0 [3] | Relative activity (%) [4] | response of fructosyl amino acid oxidase-immobilized column [2] | pH at which activity was maximized ([3]; buffer pH 6.0, 7.0 or 8.0 tested)
1 | C[C@H](N)C(=O)O [Ala] | 0.0 | 0.0 | 0% | 0% | 0% | 0.0% | – | –
2 | N=C(N)NCCC[C@H](N)C(=O)O [Arg] | 0.0 | 0.0 | 0% | 0% | 0% | 1.0% | – | –
3 | NC(=O)C[C@H](N)C(=O)O [Asn] | 0.0 | 0.0 | 0% | 0% | 0% | 0.0% | – | –
4 | N[C@@H](CC(=O)O)C(=O)O [Asp] | 0.0 | 0.0 | 0% | 0% | 0% | 0.0% | – | –
5 | N[C@@H](CS)C(=O)O [Cys] | – | – | – | – | – | 507.0% | – | –
6 | OC[C@@H](O)[C@@H](O)[C@H](O)[C@@H](O)CO [D-Sorbitol] | 0.0 | 0.0 | 0% | 0% | 0% | 0.0% | – | –
7 | O=C(CO)[C@@H](O)[C@H](O)[C@H](O)CO [Fructose] | 0.0 | 0.0 | 0% | 0% | 0% | 1.0% | – | –
8 | CC(C)[C@H](NC1(CO)O[C@H](CO)[C@@H](O)[C@@H]1O)C(=O)N[C@@H](Cc1c[nH]cn1)C(=O)O (stereo partly shown) [Fructosyl valyl histidine] | 86.8 | 1.3 | 88% | 87% | 66% | – | scarcely responded | 7.0
9 | O=C[C@H](O)[C@@H](O)[C@@H](O)[C@H](O)CO [Galactose] | 0.0 | 0.0 | 0% | 0% | 0% | 0.0% | – | –
10 | NC(=O)CC[C@H](N)C(=O)O [Gln] | 0.0 | 0.2 | 0% | 0% | 0% | 6.0% | extremely small responses | –
11 | N[C@@H](CCC(=O)O)C(=O)O [Glu] | 0.0 | 0.0 | 0% | 0% | 0% | 0.0% | – | –
12 | NCC(=O)O [Gly] | 0.0 | 0.0 | 0% | 0% | 0% | 0.0% | – | –
13 | OCC(O)CO [Glycerol] | 0.0 | 0.0 | 0% | 0% | 0% | 0.0% | – | –
14 | N[C@@H](Cc1c[nH]cn1)C(=O)O [His] | 0.0 | 0.0 | 0% | 0% | 0% | 0.0% | – | –
15 | CC(C)C[C@H](N)C(=O)O [Leu] | 0.0 | 0.0 | 0% | 0% | 0% | 0.0% | – | –
16 | NCCCC[C@H](N)C(=O)O [Lys] | 0.0 | 0.0 | 0% | 0% | 0% | 41.0% | – | –
17 | CSCC[C@H](N)C(=O)O [Met] | 0.0 | 0.1 | 0% | 0% | 0% | 8.0% | extremely small responses | –
18 | N[C@@H](Cc1ccccc1)C(=O)O [Phe] | 0.0 | 0.0 | 0% | 0% | 0% | 0.0% | – | –
19 | O=C(O)[C@@H]1CCCN1 [Pro] | 0.0 | 0.0 | 0% | 0% | 0% | 2.0% | – | –
20 | N[C@@H](CO)C(=O)O [Ser] | 0.0 | 0.0 | 0% | 0% | 0% | 0.0% | – | –
